According to patent publication US20130197085A1, “AGENT AND METHOD FOR STABILIZING MEMBRANE PROTEIN” (priority 2007, published 2013):

Key:
extrinsic P-gp = test: Decomposition rate of cell surface-expressed protein (biotin-labeling) in MDCKII cells; assay type: cell-based; conditions: 1 mM 4PBA
wild-type BSEP = molecular target: T1, wild-type BSEP (Homo sapiens, UniProt O95342, L339V); test: Treatment with actinomycin D and cycloheximide, upregulation of mature BSEP by 4PBA in MDCKII cells; assay type: cell-based; conditions: 1 mM 4PBA, 8 hours
T1 construct: expressed in transfected cells; host or cells: MDCKII cells infected with recombinant adenovirus
T1 sequence (O95342 whole entry L339V): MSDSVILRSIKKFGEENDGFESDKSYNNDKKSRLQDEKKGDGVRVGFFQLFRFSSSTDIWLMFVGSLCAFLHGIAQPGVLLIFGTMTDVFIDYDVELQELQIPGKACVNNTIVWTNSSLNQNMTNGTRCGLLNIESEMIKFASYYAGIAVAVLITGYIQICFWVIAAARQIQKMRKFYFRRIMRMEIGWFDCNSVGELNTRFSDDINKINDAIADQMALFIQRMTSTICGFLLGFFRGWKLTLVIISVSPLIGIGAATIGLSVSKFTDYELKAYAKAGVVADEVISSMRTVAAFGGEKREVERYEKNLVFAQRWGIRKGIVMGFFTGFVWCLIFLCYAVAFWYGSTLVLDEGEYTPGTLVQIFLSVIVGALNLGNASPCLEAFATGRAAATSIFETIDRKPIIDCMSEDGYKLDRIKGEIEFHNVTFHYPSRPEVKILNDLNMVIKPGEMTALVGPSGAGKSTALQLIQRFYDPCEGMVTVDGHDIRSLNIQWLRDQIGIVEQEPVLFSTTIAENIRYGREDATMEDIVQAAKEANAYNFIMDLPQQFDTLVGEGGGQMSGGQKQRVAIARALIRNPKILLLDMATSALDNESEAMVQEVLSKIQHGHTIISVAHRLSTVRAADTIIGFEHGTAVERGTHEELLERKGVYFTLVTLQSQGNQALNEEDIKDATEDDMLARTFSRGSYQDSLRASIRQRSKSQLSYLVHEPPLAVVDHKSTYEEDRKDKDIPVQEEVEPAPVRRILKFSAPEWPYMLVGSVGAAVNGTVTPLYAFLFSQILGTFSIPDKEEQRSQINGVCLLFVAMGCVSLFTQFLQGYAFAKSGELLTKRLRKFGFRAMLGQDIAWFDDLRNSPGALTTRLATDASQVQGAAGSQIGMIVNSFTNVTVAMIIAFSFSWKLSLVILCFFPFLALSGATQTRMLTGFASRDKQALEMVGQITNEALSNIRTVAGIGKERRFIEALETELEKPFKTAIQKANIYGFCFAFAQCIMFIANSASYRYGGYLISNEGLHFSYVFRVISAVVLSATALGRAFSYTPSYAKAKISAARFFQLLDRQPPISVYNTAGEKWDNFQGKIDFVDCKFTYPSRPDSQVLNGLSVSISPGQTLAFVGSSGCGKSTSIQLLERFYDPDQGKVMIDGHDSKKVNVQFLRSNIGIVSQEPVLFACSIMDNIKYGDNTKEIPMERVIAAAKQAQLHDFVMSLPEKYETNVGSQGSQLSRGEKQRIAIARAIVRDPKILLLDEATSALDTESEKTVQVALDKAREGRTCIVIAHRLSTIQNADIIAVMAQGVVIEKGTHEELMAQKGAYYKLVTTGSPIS
Procedure: (§1) MDCKII cells were dispersed on a 6-well plate, resulting in a density of 2.5×10^5 cells/well. After completion of the culture for 24 hours, the confluent cells were infected with recombinant adenoviruses having the cDNAs of wild-type, E297G and D482G BSEPs, and GFP, at 200 MOI. After completion of the infection, the cells were cultured for 36 hours. Thereafter, in order to inhibit mRNA synthesis, the cells were treated in the presence or absence of 5 μg/ml actinomycin D (Sigma). Otherwise, in order to inhibit protein synthesis, the cells were treated in the presence or absence of 20 μg/ml cycloheximide (Sigma). After completion of the treatment for 2 hours, in the presence or absence of actinomycin D or in the presence or absence of cycloheximide, 4PBA was added to the cells to a concentration of 1 mM. At the time point of 6 hours (E297G and D482G BSEPs) or 8 hours (wild-type BSEP) after the 4PBA treatment, a crude membrane fraction was prepared. The obtained fraction was separated by 6% SDS-PAGE, and Western blotting was then carried out.

E297G BSEP = molecular target: T2, E297G BSEP (Homo sapiens, UniProt O95342, E297G/L339V); test: as above; assay type: cell-based; conditions: 1 mM 4PBA, 6 hours
T2 construct: expressed in transfected cells; host or cells: MDCKII cells infected with recombinant adenovirus
T2 sequence (O95342 whole entry E297G/L339V): as the sequence (O95342 whole entry L339V) above, with E297G counted along it
Procedure: as §1

D482G BSEP = molecular target: T3, D482G BSEP (Homo sapiens, UniProt O95342, D482G/L339V); test: as above; assay type: cell-based; conditions: 1 mM 4PBA, 6 hours
T3 construct: expressed in transfected cells; host or cells: MDCKII cells infected with recombinant adenovirus
T3 sequence (O95342 whole entry L339V/D482G): as the sequence (O95342 whole entry L339V) above, with D482G counted along it
Procedure: as §1

[1] = test system: intrinsic dipeptidyl peptidase IV (DPPIV); test: Decomposition rate of cell surface-expressed protein (biotin-labeling) in MDCKII cells; assay type: cell-based; conditions: 1 mM 4PBA
Procedure: MDCKII cells were dispersed on a 6-well plate, resulting in a density of 2.5×10^5 cells/well. After completion of the culture for 24 hours, the confluent cells were infected with recombinant adenoviruses having the cDNAs of wild-type, E297G and D482G BSEPs, and GFP, at 200 MOI. After completion of the infection, the cells were cultured for 24 hours. […] After completion of the treatment for 24 hours, the cells were biotinylated (see Hayashi et al., Hepatology, 41: 916-924, 2005).
The remaining biotinylated protein was isolated, and it was then subjected to 6% SDS-PAGE, followed by Western blotting.

P-gp = test: Western blotting of canalicular membrane vesicles (CMVs) from treated rats; assay type: in vivo, SD rat; conditions: CMVs from SD rats treated at 0.6 g/kg/day for 10 days
Procedure: (§2) […] 4PBA or a vehicle was given to a male SD rat (6- to 7-week-old) for 10 days, divided over 3 administrations. Canalicular membrane vesicles were prepared from the liver of the rat (Akita et al., Biochim Biophys Acta, 1511: 7-16, 2001), and they were then used in Western blotting and a transport assay. Such transport assay was carried out by a rapid filtration method (Hayashi et al., Biochim Biophys Acta, 1738: 54-62, 2005).

DPPIV = test: as above; assay type: in vivo, SD rat; conditions: CMVs from SD rats treated at 0.6 g/kg/day for 10 days
Procedure: as §2

BSEP = molecular target: T4, BSEP (Rattus norvegicus, UniProt O70127); test: as above; assay type: in vivo, SD rat; conditions: CMVs from SD rats treated at 0.6 g/kg/day for 10 days
T4 construct: from tissue; host or cells: liver of male SD rats: in vivo for A27, canalicular membrane vesicles for A28 and A29
T4 sequence (O70127 1-1321): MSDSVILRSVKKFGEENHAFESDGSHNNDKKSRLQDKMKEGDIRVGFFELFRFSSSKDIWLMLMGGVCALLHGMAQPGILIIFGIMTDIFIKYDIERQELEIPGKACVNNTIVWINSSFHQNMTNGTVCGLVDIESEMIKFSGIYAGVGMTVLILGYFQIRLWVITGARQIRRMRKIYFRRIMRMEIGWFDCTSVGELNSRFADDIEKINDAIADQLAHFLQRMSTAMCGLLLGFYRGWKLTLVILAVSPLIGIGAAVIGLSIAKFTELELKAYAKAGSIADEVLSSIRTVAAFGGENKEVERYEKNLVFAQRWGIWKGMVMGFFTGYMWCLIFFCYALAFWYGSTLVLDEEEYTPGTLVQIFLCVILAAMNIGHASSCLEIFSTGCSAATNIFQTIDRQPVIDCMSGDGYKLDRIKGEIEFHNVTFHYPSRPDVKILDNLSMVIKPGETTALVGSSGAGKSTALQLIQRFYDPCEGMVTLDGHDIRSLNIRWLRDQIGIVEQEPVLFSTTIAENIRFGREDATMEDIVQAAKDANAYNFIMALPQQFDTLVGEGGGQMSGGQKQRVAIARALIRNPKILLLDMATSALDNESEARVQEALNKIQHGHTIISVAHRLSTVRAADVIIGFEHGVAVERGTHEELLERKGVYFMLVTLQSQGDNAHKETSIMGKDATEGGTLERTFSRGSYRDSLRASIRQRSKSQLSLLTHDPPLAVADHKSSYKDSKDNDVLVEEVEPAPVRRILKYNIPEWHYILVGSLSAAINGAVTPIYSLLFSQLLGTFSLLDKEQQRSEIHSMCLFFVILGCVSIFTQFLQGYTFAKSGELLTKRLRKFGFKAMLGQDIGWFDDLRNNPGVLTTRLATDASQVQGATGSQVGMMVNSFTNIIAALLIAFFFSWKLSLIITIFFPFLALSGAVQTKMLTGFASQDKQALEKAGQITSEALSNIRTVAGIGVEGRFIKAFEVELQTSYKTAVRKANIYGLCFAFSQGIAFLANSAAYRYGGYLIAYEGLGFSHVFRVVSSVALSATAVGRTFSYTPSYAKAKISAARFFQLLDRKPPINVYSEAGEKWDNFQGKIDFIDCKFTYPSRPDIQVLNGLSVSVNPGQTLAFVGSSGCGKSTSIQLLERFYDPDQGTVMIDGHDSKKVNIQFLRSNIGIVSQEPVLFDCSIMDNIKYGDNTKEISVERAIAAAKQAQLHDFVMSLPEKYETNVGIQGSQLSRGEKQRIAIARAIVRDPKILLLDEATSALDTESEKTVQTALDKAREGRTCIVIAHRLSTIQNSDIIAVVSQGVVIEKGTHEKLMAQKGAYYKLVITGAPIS
Procedure: as §2

[2] = molecular target: T5, BSEP on canalicular membrane (Rattus norvegicus, UniProt O70127); test: Transport assay using canalicular membrane vesicles (CMVs) from treated rats; assay type: in vivo, SD rat
T5 construct: from tissue; host or cells: liver of male SD rats: in vivo for A27, canalicular membrane vesicles for A28 and A29
T5 sequence (O70127 1-1321): T4 sequence (O70127 1-1321)
Procedure: as §2

Compound: O=C(O)CCCc1ccccc1 [4PBA, 4-phenylbutyric acid]
- decomposition of extrinsic P-gp on the cell surface (extrinsic P-gp): not influenced
- effect of transcription inhibition by actinomycin D on the increase in expression of mature BSEP due to 4PBA (wild-type BSEP; actinomycin D 5 μg/ml): did not affect
- effect of translation inhibition by cycloheximide on the increase in expression of mature BSEP due to 4PBA (wild-type BSEP; cycloheximide 20 μg/ml): did not affect
- effect of transcription inhibition by actinomycin D on the increase in expression of mature BSEP due to 4PBA (E297G BSEP; actinomycin D 5 μg/ml): did not affect
- effect of translation inhibition by cycloheximide on the increase in expression of mature BSEP due to 4PBA (E297G BSEP; cycloheximide 20 μg/ml): did not affect
- effect of transcription inhibition by actinomycin D on the increase in expression of mature BSEP due to 4PBA (D482G BSEP; actinomycin D 5 μg/ml): did not affect
- effect of translation inhibition by cycloheximide on the increase in expression of mature BSEP due to 4PBA (D482G BSEP; cycloheximide 20 μg/ml): did not affect
- decomposition of intrinsic DPPIV on the cell surface [1]: not influenced
- expression level of P-gp in CMVs (P-gp): not changed
- expression level of DPPIV in CMVs (DPPIV): not changed
- expression level of BSEP in CMVs, increase (BSEP): 3.2 times
- ATP-dependent uptake of [^3H] TC by CMVs, higher than CMVs from vehicle-treated rats ([2]; CMVs from SD rats treated at 0.6 g/kg/day for 10 days): 3 times
- Vmax value of [^3H] TC uptake by CMVs ([2]; CMVs from SD rats treated with 4PBA at 0.6 g/kg/day for 10 days): 1,000±110
